The values below come from patent US10172814B2, “Substituted pyridyl-cycloalkyl-carboxylic acids, compositions containing them and medical uses thereof” (BAYER PHARMA AKTIENGESELLSCHAFT, priority 2014, dated 2019).

As a reminder, the IC50 is the midpoint of a concentration-inhibition curve.

Sequence of human PTGES (O14684 whole entry): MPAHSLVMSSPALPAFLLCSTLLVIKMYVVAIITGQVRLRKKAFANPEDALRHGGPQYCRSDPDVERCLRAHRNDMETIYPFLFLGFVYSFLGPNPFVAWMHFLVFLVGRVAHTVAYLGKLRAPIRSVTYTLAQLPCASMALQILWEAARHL

This assay addresses human PTGES (Homo sapiens (Human), UniProt O14684). As to the kind of experiment: Human PTGES biochemical enzyme inhibition assay (conversion of PGH2 to PGE2, TR-FRET). The note with it: Enzymatic conversion of PGH2 to PGE2; read-out: Human PTGES IC50. How it is done:
Human PTGES Biochemical Enzyme Inhibition Assay:
PTGES (Microsomal prostaglandin E synthase 1) is an enzyme that converts prostaglandin H2 (PGH2) to prostaglandin E2 (PGE2) in the presence of reduced glutathione (GSH).
Recombinant proteins (human isoforms) of PTGES containing a FLAG tag, expressed in baculovirus infected insect cells (Hi-5) and purified by affinity chromatography was used as enzyme in the assay. Substrate was prostaglandin H2 (Cayman Chemicals).
4 ul of a solution of human PTGES in assay buffer [100 mM sodium phosphate pH 7.2, 2.5 mM Glutathion reduced, 1 mM EDTA, 0.01% BSA, 0.4 mM DTT, 0.15 mM n-dodecylmaltoside] was added to the well containing test compound and incubated for 15-20 minutes to allow binding of the compound to the enzyme prior to the enzymatic reaction. The reaction was started by addition of 1 ul of an ice cold solution containing PGH2 (40 nM in assay buffer resulting in a final concentration of 8 nM PGH2 in the assay). […] The concentration of each isoform of PTGES was adapted to the activity of the respective enzyme preparation to maintain linear reaction properties within the reaction time. […] The reaction was stopped by addition of 1 ul of a solution containing 15 mM SnCl2 and 400 mM KF in water. SnCl2 converts the remaining unstable PGH2 to stable PGF2alpha. Then, 3 ul of the a first detection solution containing PGE2-D2 (Cisbio Bioassays, TR-FRET reagent, diluted according to the manufacturer's recommendation, typically 1:20 in reconstitution buffer) was added. […] The resulting mix was incubated overnight at 4° C. to allow the formation of a complex of PGE2 and the detection reagents. […] Dilution series were made prior to the assay in a 100 fold concentrated form by serial dilution. IC50 values were calculated by 4-Parameter fitting.
(In general: Time-resolved FRET reads energy transfer from a long-lived donor to a nearby acceptor.)
For the molecule `CCOc1cncc(-c2ccc(C(C(=O)Nc3cccc(C(C)CC(=O)O)c3C)C3CCCC3)cc2)c1` (mixture of isomers) [Example 90, (3R/S)-3-[3-({(2R/S)-2-Cyclopentyl-2-[4-(5-ethoxypyridin-3-yl)phenyl]acetyl}amino)-2-methylphenyl]butanoic acid], the IC50 was 108 nM.
The result for `Cc1c(NC(=O)C(c2ccc(-c3cncc(C(F)(F)F)c3)cc2)C2CCCC2)cccc1C(C)CC(=O)O` (mixture of isomers) [Example 91, (3R/S)-3-(3-{[(2R/S)-2-Cyclopentyl-2-{4-[5-(trifluoromethyl)pyridin-3-yl]phenyl}acetyl]amino}-2-methylphenyl)butanoic acid] reads 20.3 nM.
`CCc1cncc(-c2ccc(C(C(=O)Nc3cccc(C(C)CC(=O)O)c3C)C3CCCC3)cc2)c1` (mixture of isomers) [Example 92, (3R/S)-3-[3-({(2R/S)-2-Cyclopentyl-2-[4-(5-ethylpyridin-3-yl)phenyl]acetyl}amino)-2-methylphenyl]butanoic acid]: the IC50 turned out to be 22 nM.
Regarding `Cc1cc(-c2ccc(C(C(=O)Nc3cccc(C(C)CC(=O)O)c3C)C3CCCC3)cc2)cnc1C` (mixture of isomers) [Example 93, (3R/S)-3-[3-({(2R/S)-2-Cyclopentyl-2-[4-(5,6-dimethylpyridin-3-yl)phenyl]acetyl}amino)-2-methylphenyl]butanoic acid], the half-inhibitory concentration (IC50) was found to be 35.6 nM.
Under `Cc1cncc(-c2ccc(C(C(=O)Nc3cccc(C(C)CC(=O)O)c3C)C3CCCC3)cc2)c1` (mixture of isomers) [Example 94, (3R/S)-3-[3-({(2R/S)-2-Cyclopentyl-2-[4-(5-methylpyridin-3-yl)phenyl]acetyl}amino)-2-methylphenyl]butanoic acid] stands 32.3 nM; under `Cc1c(NC(=O)C(c2ccc(-c3cncc(F)c3)cc2)C2CCCC2)cccc1C(C)CC(=O)O` (mixture of isomers) [Example 95, (3R/S)-3-[3-({(2R/S)-2-Cyclopentyl-2-[4-(5-fluoropyridin-3-yl)phenyl]acetyl}amino)-2-methylphenyl]butanoic acid], 41.7 nM; under `Cc1ncc(-c2ccc(C(C(=O)Nc3cccc(C(C)CC(=O)O)c3C)C3CCCC3)cc2)cc1F` (mixture of isomers) [Example 96, (3R/S)-3-[3-({(2R/S)-2-[4-(5-Fluoro-6-methylpyridin-3-yl)phenyl]-2-cyclopentylacetyl}amino)-2-methylphenyl]butanoic acid], 36.9 nM.
Under `Cc1ncc(-c2ccc(C(C(=O)Nc3cccc(C(C)CC(=O)O)c3C)C3CCCC3)cc2)cc1Cl` (mixture of isomers) [Example 97, (3R/S)-3-[3-({(2R/S)-2-[4-(5-Chloro-6-methylpyridin-3-yl)phenyl]-2-cyclopentylacetyl}amino)-2-methylphenyl]butanoic acid] stands 13 nM; under `Cc1c(NC(=O)C(c2ccc(-c3cncc(C(F)F)c3)cc2)C2CCCC2)cccc1C(C)CC(=O)O` (mixture of isomers) [Example 98, (3R/S)-3-(3-{[(2R/S)-2-Cyclopentyl-2-{4-[5-(difluoromethyl)pyridin-3-yl]phenyl}acetyl]amino}-2-methylphenyl)butanoic acid], 33.8 nM.
Turning to `CCOc1cncc(-c2ccc(C(C(=O)Nc3cccc(C(CC)CC(=O)O)c3C)C3CCCC3)cc2)c1` (mixture of isomers) [Example 107, (3R/S)-3-[3-({(2R/S)-2-Cyclopentyl-2-[4-(5-ethoxypyridin-3-yl)phenyl]acetyl}amino)-2-methylphenyl]pentanoic acid], the IC50 was found to be 106 nM.
Take `Cc1ncc(-c2ccc(C(C(=O)Nc3cccc(C(CC(=O)O)C4CC4)c3C)C3CCCC3)cc2)cc1Cl` (mixture of isomers) [Example 108, (3R/S)-3-[3-({(2R/S)-2-[4-(5-chloro-6-methylpyridin-3-yl)phenyl]-2-cyclopentylacetyl}amino)-2-methylphenyl]-3-cyclopropylpropanoic acid]: the concentration for half-maximal inhibition (IC50) worked out at 31.9 nM.
Under `Cc1c(NC(=O)C(c2ccc(-c3cncc(C(F)(F)F)c3)cc2)C2CCCC2)cccc1C(CC(=O)O)C1CC1` (mixture of isomers) [Example 109, (3R/S)-3-(3-{[(2R/S)-2-cyclopentyl-2-{4-[5-(trifluoromethyl)pyridin-3-yl]phenyl}acetyl]amino}-2-methylphenyl)-3-cyclopropylpropanoic acid] stands 24.9 nM; under `Cc1c(NC(=O)C(c2ccc(-c3cncc(Cl)c3)cc2)C2CCCC2)cccc1C(CC(=O)O)C1CC1` (mixture of isomers) [Example 110, (3R/S)-3-[3-({(2R/S)-2-[4-(5-chloropyridin-3-yl)phenyl]-2-cyclopentylacetyl}amino)-2-methylphenyl]-3-cyclopropylpropanoic acid], 54.4 nM; under `CCOc1cncc(-c2ccc(C(C(=O)Nc3cccc(C(CC(=O)O)C4CC4)c3C)C3CCCC3)cc2)c1` (mixture of isomers) [Example 111, (3R/S)-3-[3-({(2R/S)-2-cyclopentyl-2-[4-(5-ethoxypyridin-3-yl)phenyl]acetyl}amino)-2-methylphenyl]-3-cyclopropylpropanoic acid], 53.9 nM.
Turning to `Cc1c(NC(=O)C(c2ccc(-c3cncc(F)c3)cc2)C2CCCC2)cccc1C(CC(=O)O)C1CC1` (mixture of isomers) [Example 112, (3R/S)-3-[3-({(2R/S)-2-cyclopentyl-2-[4-(5-fluoropyridin-3-yl)phenyl]acetyl}amino)-2-methylphenyl]-3-cyclopropylpropanoic acid], the IC50 was 51.9 nM.
In the case of `Cc1cncc(-c2ccc(C(C(=O)Nc3cccc(C(CC(=O)O)C4CC4)c3C)C3CCCC3)cc2)c1` (mixture of isomers) [Example 113, (3R/S)-3-[3-({(2R/S)-2-cyclopentyl-2-[4-(5-methylpyridin-3-yl)phenyl]acetyl}amino)-2-methylphenyl]-3-cyclopropylpropanoic acid], the 50% inhibitory concentration (IC50) turned out to be 140 nM.
For `CCc1cncc(-c2ccc(C(C(=O)Nc3cccc(C(CC(=O)O)C4CC4)c3C)C3CCCC3)cc2)c1` (mixture of isomers) [Example 114, (3R/S)-3-[3-({(2R/S)-2-cyclopentyl-2-[4-(5-ethylpyridin-3-yl)phenyl]acetyl}amino)-2-methylphenyl]-3-cyclopropylpropanoic acid], the IC50 was 29.5 nM.
Turning to `Cc1c(NC(=O)C(c2ccc(-c3cncc(C(F)(F)F)c3)c(F)c2)C2CCCC2)cccc1C(C)CC(=O)O` (mixture of isomers) [Example 115, (3R/S)-3-(3-{[(2R/S)-2-Cyclopentyl-2-{3-fluoro-4-[5-(trifluoromethyl)pyridin-3-yl]phenyl}acetyl]amino}-2-methylphenyl)butanoic acid], the IC50 turned out to be 18.5 nM.
`Cc1ncc(-c2ccc(C(C(=O)Nc3cccc(C(C)CC(=O)O)c3C)C3CCCC3)cc2F)cc1Cl` (mixture of isomers) [Example 120, (3R/S)-3-[3-({(2R/S)-2-[4-(5-Chloro-6-methylpyridin-3-yl)-3-fluorophenyl]-2-cyclopentylacetyl}amino)-2-methylphenyl]butanoic acid]: the IC50 worked out at 15.9 nM.
As for `Cc1c(NC(=O)C(c2ccc(-c3cncc(Cl)c3)c(F)c2)C2CCCC2)cccc1C(C)CC(=O)O` (mixture of isomers) [Example 125, (3R/S)-3-[3-({(2R/S)-2-[4-(5-Chloropyridin-3-yl)-3-fluorophenyl]-2-cyclopentylacetyl}amino)-2-methylphenyl]butanoic acid], the IC50 turned out to be 22.9 nM.
In the case of `Cc1c(NC(=O)C(c2ccc(-c3cncc(Cl)c3)cc2)C2CCC2)cccc1C(C)CC(=O)O` (mixture of isomers) [Example 135, (3R/S)-3-[3-({(2R/S)-2-[4-(5-Chloropyridin-3-yl)phenyl]-2-cyclobutylacetyl}amino)-2-methylphenyl]butanoic acid], the concentration for half-maximal inhibition (IC50) amounted to 86.2 nM.
For the molecule `Cc1c(NC(=O)C(c2ccc(-c3cncc(C(F)(F)F)c3)c(F)c2)C2CCC2)cccc1C(C)CC(=O)O` (mixture of isomers) [Example 145, (3R/S)-3-(3-{[(2R/S)-2-Cyclobutyl-2-{3-fluoro-4-[5-(trifluoromethyl)pyridin-3-yl]phenyl}acetyl]amino}-2-methylphenyl)butanoic acid], the IC50 amounted to 50.4 nM.
As for `Cc1c(NC(=O)C(c2ccc(-c3cncc(C(F)(F)F)c3)c(F)c2)C2CCC2)cccc1C(C)CC(=O)O` (mixture of isomers) [Example 146, 3-{3-[(Cyclobutyl{3-fluoro-4-[5-(trifluoromethyl)pyridin-3-yl]phenyl}acetyl)amino]-2-methylphenyl}butanoic acid, Stereoisomeric Mixture 1], the concentration for half-maximal inhibition (IC50) was found to be 12.6 nM.
In the case of `Cc1c(CCC(=O)O)cccc1NC(=O)C(c1ccc(-c2ccc(C(F)(F)F)nc2)cc1)C1CCCC1` (racemic) [Example 4, (R/S) 3-{3-[(Cyclopentyl{4-[6-(trifluoromethyl)pyridin-3-yl]phenyl}acetyl)amino]-2-methylphenyl}propanoic acid], the half-maximal inhibitory concentration (IC50) turned out to be 1320 nM.
